Test [1] has as its system synthesis of LTB4 in human whole blood. Nature of the test: human whole blood LTB4 production inhibition assay. As to conditions: Homo sapiens, heparinized human whole blood, calcimycin 20 μM; read-out: hWB LTB4 IC50. The test is classed as cell-based. In a few lines:
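Heparinized human whole blood preincubated with compound 15 min at 37 °C, then stimulated with calcimycin (20 μM final) for 30 min at 37 °C. Plasma LTB4 measured after low-speed centrifugation by antibody-based homogeneous time-resolved fluorescence.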

In test [2] the target is T1, recombinant human FLAP protein (Homo sapiens, UniProt P20292).
T1 construct: made in house; host or cells: Sf9 insect cells (100,000 x g membrane fraction)
T1 sequence (P20292 1-161): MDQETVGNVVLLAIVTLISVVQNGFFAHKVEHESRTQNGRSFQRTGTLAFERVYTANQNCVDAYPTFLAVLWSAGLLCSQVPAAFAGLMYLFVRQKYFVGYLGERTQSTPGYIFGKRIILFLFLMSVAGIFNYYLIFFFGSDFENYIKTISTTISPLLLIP
Nature of the test: FLAP binding assay (Scintillation Proximity Assay, displacement of [125I]L-691,831). Particulars: recombinant human FLAP membranes, [125I]L-691,831 probe; read-out: FLAP SPA IC50. In a few lines:
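Membranes came from Sf9 insect cells expressing recombinant human FLAP, collected as the 100,000×g pellet in Tris pH 7.5/MgCl2/EDTA buffer. 5 μg membrane protein was coupled to WGA SPA beads for 1 h.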

As to `COC(=O)C(C)(C)Nc1cnc(-c2nc(C3(c4ccc(-c5cnc(N)nc5)cc4)CCC3)no2)cn1` [Example 90, 2-[5-(3-{1-[4-(2-Amino-pyrimidin-5-yl)-phenyl]-cyclobutyl}-1,2,4-oxadiazol-5-yl)-pyrazin-2-ylamino]-2-methyl-propionic acid methyl ester], the IC50 in test [1] stood at 210 nM; in test [2], 3.4 nM.
With `Nc1ncc(-c2ccc(C3(c4noc(-c5ccc(=O)[nH]c5)n4)CCC3)cc2)cn1` [Example 91, 5-(3-{1-[4-(2-Amino-pyrimidin-5-yl)-phenyl]-cyclobutyl}-1,2,4-oxadiazol-5-yl)-1H-pyridin-2-one], the concentration for half-maximal inhibition (IC50) in test [1] turned out to be 151 nM; in test [2] it was 3.7 nM.
The like results for `Cn1ccc(-c2nc(C3(c4ccc(-c5cnc(N)nc5)cc4)CCC3)no2)n1` [Example 92, 5-(4-{1-[5-(1-Methyl-1I-pyrazol-3-yl)-1,2,4-oxadiazol-3-yl]-cyclobutyl}-phenyl)-pyrimidin-2-ylamine] were, in that order, 150 nM and 4.9 nM.
The like results for `Nc1ncc(-c2ccc(C3(c4noc(-c5cc[nH]n5)n4)CCC3)cc2)cn1` [Example 93, 5-(4-{1-[5-(1H-Pyrazol-3-yl)-1,2,4-oxadiazol-3-yl]-cyclobutyl}-phenyl)-pyrimidin-2-ylamine] were, in that order, 160 nM and 2.4 nM.
Regarding `CN(CCO)c1cc(-c2nc(C3(c4ccc(-c5cnc(N)nc5)cc4)CCC3)no2)ccn1` [Example 94, 2-{[4-(3-{1-[4-(2-amino-pyrimidin-5-yl)-phenyl]-cyclobutyl}-1,2,4-oxadiazol-5-yl)-pyridin-2-yl]-methyl-amino}-ethanol], the IC50 is 560 nM in test [1] and 6.1 nM in test [2].
The like results for `Nc1ncc(-c2ccc(C3(c4noc(-c5ccnc(NCCO)c5)n4)CCC3)cc2)cn1` [Example 95, 2-[4-(3-{1-[4-(2-Amino-pyrimidin-5-yl)-phenyl]-cyclobutyl}-1,2,4-oxadiazol-5-yl)-pyridin-2-ylamino]-ethanol] were, in that order, 130 nM and 3.2 nM.
Taken in the same sequence, the figures for `Nc1ncc(-c2ccc(C3(c4noc(-c5nc[nH]n5)n4)CCC3)cc2)cn1` [Example 96, 5-(4-{1-[5-(1H-1,2,4-Triazol-3-yl)-1,2,4-oxadiazol-3-yl]-cyclobutyl}-phenyl)-pyrimidin-2-ylamine] were 2700 nM and 13 nM.
With `COCCNc1cc(-c2nc(C3(c4ccc(-c5cnc(N)nc5)cc4)CCC3)no2)ccn1` [Example 97, 5-[4-(1-{5-[2-(2-Methoxy-ethylamino)-pyridin-4-yl]-1,2,4-oxadiazol-3-yl}-cyclobutyl)-phenyl]-pyrimidin-2-ylamine], the IC50 in test [1] is 92 nM; in test [2], 2.9 nM.
Turning to `COc1cc(-c2nc(C3(c4ccc(-c5cnc(N)nc5)cc4)CCC3)no2)ccc1O` [Example 98, 4-(3-{1-[4-(2-Amino-pyrimidin-5-yl)-phenyl]-cyclobutyl}-1,2,4-oxadiazol-5-yl)-2-methoxy-phenol], the IC50 in test [1] is 110 nM; in test [2], 2.3 nM.
In the case of `Cc1cc(-c2nc(C3(c4ccc(-c5cnc(N)nc5)cc4)CCC3)no2)ccc1O` [Example 99, 4-(3-{1-[4-(2-Amino-pyrimidin-5-yl)-phenyl]-cyclobutyl}-1,2,4-oxadiazol-5-yl)-2-methyl-phenol], the IC50 in test [1] turned out to be 150 nM; in test [2], 2 nM.
Turning to `Nc1ncc(-c2ccc(C3(c4noc(-c5ccc(O)c(Cl)c5)n4)CCC3)cc2)cn1` [Example 100, 4-(3-{1-[4-(2-Amino-pyrimidin-5-yl)-phenyl]-cyclobutyl}-1,2,4-oxadiazol-5-yl)-2-chloro-phenol], the IC50 amounted to 170 nM in test [1] and 2.1 nM in test [2].
Taken in the same sequence, the figures for `Nc1ncc(-c2ccc(C3(c4noc(-c5ccc(Cl)nc5)n4)CCC3)cc2)cn1` [Example 101, 5-(4-{1-[5-(6-Chloro-pyridin-3-yl)-1,2,4-oxadiazol-3-yl]-cyclobutyl}-phenyl)-pyrimidin-2-ylamine] were 250 nM and 3.3 nM.
On to `Nc1ncc(-c2ccc(C3(c4noc(-c5ccc(N6CCC[C@@H]6CO)nc5)n4)CCC3)cc2)cn1` [Example 102, {(R)-1-[5-(3-{1-[4-(2-Amino-pyrimidin-5-yl)-phenyl]-cyclobutyl}-1,2,4-oxadiazol-5-yl)-pyridin-2-yl]-pyrrolidin-2-yl}-methanol], for which the IC50 was 180 nM in test [1] and 2.5 nM in test [2].
For `Nc1ncc(-c2ccc(C3(c4noc(-c5ccc(N6CC[C@@H](O)C6)nc5)n4)CCC3)cc2)cn1` [Example 103, (R)-1-[5-(3-{1-[4-(2-Amino-pyrimidin-5-yl)-phenyl]-cyclobutyl}-1,2,4-oxadiazol-5-yl)-pyridin-2-yl]-pyrrolidin-3-ol], the values for the IC50 in test [1] and in test [2] were 63 nM and 1.3 nM, respectively.
Taken in the same sequence, the figures for `Nc1ncc(-c2ccc(C3(c4noc(-c5ccc(N6CCNCC6)cc5)n4)CCC3)cc2)cn1` [Example 104] were 99 nM and 1.3 nM.
As to `Nc1ncc(-c2ccc(C3(c4noc(-c5ccc(N6CC[C@H](O)C6)nc5)n4)CCC3)cc2)cn1` [Example 105, (S)-1-[5-(3-{1-[4-(2-Amino-pyrimidin-5-yl)-phenyl]-cyclobutyl}-1,2,4-oxadiazol-5-yl)-pyridin-2-yl]-pyrrolidin-3-ol], the IC50 in test [1] was found to be 78 nM; in test [2], 1.9 nM.
Taken in the same sequence, the figures for `CCOC(=O)CCN1CCN(c2ccc(-c3nc(C4(c5ccc(-c6cnc(N)nc6)cc5)CCC4)no3)cn2)CC1` [Example 106, 3-{4-[5-(3-{1-[4-(2-Amino-pyrimidin-5-yl)-phenyl]-cyclobutyl}-1,2,4-oxadiazol-5-yl)-pyridin-2-yl]-piperazin-1-yl}-propionic acid ethyl ester] were 130 nM and 2.7 nM.
In the case of `Nc1ncc(-c2ccc(C3(c4noc(-c5ccc(N6CCS(=O)(=O)CC6)nc5)n4)CCC3)cc2)cn1` [Example 107, 5-[4-(1-{5-[6-(1,1-Dioxo-1λ^6-thiomorpholin-4-yl)-pyridin-3-yl]-1,2,4-oxadiazol-3-yl}-cyclobutyl)-phenyl]-pyrimidin-2-ylamine], the results for the IC50 in test [1] and in test [2] were 98 nM and 1.4 nM, respectively.
Taken in the same sequence, the figures for `CS(=O)(=O)CCNc1ccc(-c2nc(C3(c4ccc(-c5cnc(N)nc5)cc4)CCC3)no2)cn1` [Example 108, 5-[4-(1-{5-[6-(2-Methanesulfonyl-ethylamino)-pyridin-3-yl]-1,2,4-oxadiazol-3-yl}-cyclobutyl)-phenyl]-pyrimidin-2-ylamine] were 110 nM and 1.3 nM.
For `CS(=O)(=O)N1CCN(c2ccc(-c3nc(C4(c5ccc(-c6cnc(N)nc6)cc5)CCC4)no3)cn2)CC1` [Example 109, 5-[4-(1-{5-[6-(4-Methanesulfonyl-piperazin-1-yl)-pyridin-3-yl]-1,2,4-oxadiazol-3-yl}-cyclobutyl)-phenyl]-pyrimidin-2-ylamine], the values for the IC50 in test [1] and in test [2] were 98 nM and 1.3 nM, respectively.
The like results for `CS(=O)(=O)C1CCN(c2ccc(-c3nc(C4(c5ccc(-c6cnc(N)nc6)cc5)CCC4)no3)cn2)C1` (stereo not drawn) [Example 110, 5-[4-(1-{5-[6-(3-Methanesulfonyl-pyrrolidin-1-yl)-pyridin-3-yl]-1,2,4-oxadiazol-3-yl}-cyclobutyl)-phenyl]-pyrimidin-2-ylamine] were, in that order, 110 nM and 0.92 nM.
Take `COCCNc1ccc(-c2nc(C3(c4ccc(-c5cnc(N)nc5)cc4)CCC3)no2)nn1` [Example 111, [6-(3-{1-[4-(2-amino-pyrimidin-5-yl)-phenyl]-cyclobutyl}-1,2,4-oxadiazol-5-yl)-pyridazin-3-yl]-(2-methoxy-ethyl)-amine]: the IC50 in test [1] was determined as 32 nM; in test [2] it was 1.2 nM.
In the case of `Nc1ncc(-c2ccc(C3(c4noc(-c5ccc(NCCO)nn5)n4)CCC3)cc2)cn1` [Example 112, 2-[6-(3-{1-[4-(2-Amino-pyrimidin-5-yl)-phenyl]-cyclobutyl}-1,2,4-oxadiazol-5-yl)-pyridazin-3-ylamino]-ethanol], the IC50 in test [1] came to 760 nM; in test [2], 1.4 nM.
In the case of `CN(CCO)c1ccc(-c2nc(C3(c4ccc(-c5cnc(N)nc5)cc4)CCC3)no2)nn1` [Example 113, 2-{[6-(3-{1-[4-(2-Amino-pyrimidin-5-yl)-phenyl]-cyclobutyl}-1,2,4-oxadiazol-5-yl)-pyridazin-3-yl]-methyl-amino}-ethanol], the values for the IC50 in test [1] and in test [2] were 100 nM and 1.6 nM, respectively.
For `CC(C)(O)CNc1ccc(-c2nc(C3(c4ccc(-c5cnc(N)nc5)cc4)CCC3)no2)nn1` [Example 114, 1-[6-(3-{1-[4-(2-Amino-pyrimidin-5-yl)-phenyl]-cyclobutyl}-1,2,4-oxadiazol-5-yl)-pyridazin-3-ylamino]-2-methyl-propan-2-ol], the IC50 in test [1] is 290 nM; in test [2] it was 2.6 nM.
The like results for `Nc1ncc(-c2ccc(C3(c4noc(-c5ccc(NCCN6CCOCC6)nn5)n4)CCC3)cc2)cn1` [Example 115, [6-(3-{1-[4-(2-Amino-pyrimidin-5-yl)-phenyl]-cyclobutyl}-1,2,4-oxadiazol-5-yl)-pyridazin-3-yl]-(2-morpholin-4-yl-ethyl)-amine] were, in that order, 140 nM and 3.3 nM.
Turning to `Nc1ncc(-c2ccc(C3(c4noc(-c5ccc(N6CCNCC6)nc5)n4)CCC3)cc2)cn1` [Example 116, 5-(4-{1-[5-(6-piperazin-1-yl-pyridin-3-yl)-1,2,4-oxadiazol-3-yl]-cyclobutyl}-phenyl)-pyrimidin-2-ylamine], the IC50 in test [1] is 150 nM; in test [2] it was 1.8 nM.
